Test results reported in patent US8247429B2, “Tricyclic compound and pharmaceutical use thereof” (Takeda Pharmaceutical Company Limited, priority 2006, dated 2012).

Key:
[1] = biological target: T1, human melatonin 1 receptors (human MT1 receptors) (Homo sapiens, UniProt P48039); test: Melatonin receptor binding inhibitory test (2-[125I] Iodomelatonin), MT1; conditions: membrane fraction of CHO-hMelR7 cells, 25° C. for 2.5 hr
T1 construct: expressed in transfected cells; membrane fraction used
Experimental: (§1) Melatonin receptor binding inhibitory test
(1) Preparation of CHO-hMelR7 Cells Expressing Human Melatonin 1 Receptors
A cDNA fragment (SEQ ID NO: 1) encoding full-length of human melatonin 1 receptors (human MT1 receptors) was incorporated into expression vector pAKKO-111H (former name pAKKO1.11H; Biochim Biophys Acta. Vol. 1219(2), pp. 251-259, 1994) to give plasmid pAKKO-hMelR7 for animal cell expression. CHO/dhfr-cells (ATCC, #CRL-9096) were plated at a concentration of 0.3×10^6 cells/dish in a 6 cm culture dish (Becton Dickinson), and cultured under the conditions of 37° C., 5% CO2 for 48 hr. The cells were transfected with pAKKO-hMelR7 plasmid DNA (5 μg) using Cellphect Transfection Kit (Amersham, #27-9268-01). The transfected cells were cultured in Dulbecco's modified Eagle medium (DMEM) (Sigma, #D6046) containing 10% dialyzed FBS (Biowest, #S180D), 1× Non-Essential Amino Acid (Invitrogen, #11140-050) and 50 μg/mL Gentamycin (Invitrogen, #15750-060), and the cell line that stably expressed the plasmid gene was selected. By a receptor binding assay using 2-[^125I] Iodomelatonin, CHO-hMelR7 cell line showing specific binding of 2-[^125I] Iodomelatonin was selected from the obtained clones.
(§2) (3) Preparation of Cellular Membrane Fraction of CHO Cell (CHO-hMelR7 and CHO-hMT2) Stably Expressing Human MT1 and MT2 Receptors
(§3) CHO-hMelR7 and CHO-hMT2 cells were plated using Cellfactory (Nunc, #170009) under the conditions of 1×10^8 cells/2000 mL/flask. The cells were grown to confluent, and recovered by the following method. As the medium for CHO-hMelR7 and CHO-hMT2, MEM α containing 10% FBS and penicillin/streptomycin was used. […] of geneticin was added to the medium for CHO-hMT2.
(§4) The medium was discarded, cells were washed twice with 200 mL of EDTA/PBS(−), 200 mL of EDTA/PBS(−) was further added, and the cells were stood still at room temperature for 20 min until they were released. The cells were recovered in four 50 mL tubes (Becton Dickinson, #352070), and centrifuged at 1,500 rpm for 10 min at 4° C. using a low speed cooling centrifuge (Hitachi, CF7D2). The supernatant was discarded, the pellets in the four tubes were suspended in 10 mL of PBS(−), and combined in one tube (Becton Dickinson, #352070). The mixture was further centrifuged at 1,500 rpm for 10 min at 4° C., and the obtained pellets were suspended in 20 mL of ice-cooled homogenizing buffer [10 mM NaHCO3, 5 mM EDTA, Protease inhibitor Complete (Roche), pH 7.4]. The cell suspension was homogenized 3 times using a polytron homogenizer at 20,000 rpm for 30 sec. The obtained homogenate was centrifuged (2,000 rpm, 10 min, 4° C.) using a low speed cooling centrifuge. The supernatant was recovered in an ultracentrifugation tube and ultracentrifuged (40,000 rpm, 60 min, 4° C.) using an ultracentrifuge (Beckman, L-90K). To the obtained pellets was added a suspending buffer [50 mM Tris-HCl, 1 mM EDTA, Protease inhibitor Complete (Roche), pH 7.4], and the pellets were suspended by pipetting. The protein concentration of this suspension was measured, diluted to 2 mg/mL to give cellular membrane fractions of CHO-hMelR7 and CHO-hMT2 cells. The membrane fractions were dispensed to 1.5 mL tubes (Eppendorf, #0030120.086) by 100 μL, preserved in a freezer (−80° C.) and used for a binding assay. Protein was quantified using BCA protein assay kit (Pierce) with BSA as the standard.
(§5) (4) Preparation of Membrane Fraction Suspension
(§6) Immediately before use, the membrane fractions of CHO-hMelR7 and CHO-hMT2 cells of the above-mentioned (3) were diluted 20-fold with assay buffer (50 mM Tris-HCl, pH 7.7).
(§7) (5) Preparation of 2-[^125I] Iodomelatonin Solution
(§8) 2-[^125I] Iodomelatonin (#NEX236, PerkinElmer) was diluted with the assay buffer to 400 pM for MT1 and 1 nM for MT2.
(§9) The assay buffer (80 μL) of the above-mentioned (4) was added to each well of a 96-well plate (type 3363, Corning). […]

[2] = biological target: T2, human melatonin 2 receptors (human MT2 receptors) (Homo sapiens, UniProt P49286); test: Melatonin receptor binding inhibitory test (2-[125I] Iodomelatonin), MT2; conditions: membrane fraction of CHO-hMT2 cells, 25° C. for 2.5 hr
T2 construct: expressed in transfected cells; membrane fraction used
T2 sequence (P49286 1-362): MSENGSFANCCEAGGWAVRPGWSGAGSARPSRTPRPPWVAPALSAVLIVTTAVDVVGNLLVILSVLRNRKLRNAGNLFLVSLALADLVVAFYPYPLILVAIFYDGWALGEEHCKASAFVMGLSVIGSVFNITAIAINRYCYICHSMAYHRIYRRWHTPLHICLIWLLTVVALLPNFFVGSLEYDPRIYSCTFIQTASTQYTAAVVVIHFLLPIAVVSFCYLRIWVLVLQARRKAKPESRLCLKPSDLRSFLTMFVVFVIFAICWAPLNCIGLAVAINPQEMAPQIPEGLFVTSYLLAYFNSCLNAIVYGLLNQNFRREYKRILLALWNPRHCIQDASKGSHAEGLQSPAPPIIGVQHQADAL
Experimental: as §1
(2) Preparation of CHO-hMT2 Cells Expressing Human Melatonin 2 Receptors
A cDNA fragment (SEQ ID NO: 2) encoding full-length of human melatonin 2 receptors (human MT2 receptors) was incorporated into expression vector pCMV-Script (Stratagene, #212220) to give the plasmid that was pCMV-human MT2 receptors expression vector for animal cell expression. CHO-K1 cells (ATCC, #CCL-61) were plated at the concentration of 1.5×10^5 cells/cm^2 in a 6 well plate (ASAHI TECHNO GLASS), and cultured under the conditions of 37° C., 5% CO2 for 24 hr. For gene transfection, solution obtained by blending pCMV-human MT2 receptors expression vector (1.9 μg), Lipofectamine Transfection Reagent (Invitrogen, #18324-012) (11.3 μL) and Minimum Essential Medium Eagle (MEM) medium (Sigma, M8042) (93.8 μL), and reacting at room temperature for 20 min was added to the cells per one well. The transfected cells were cultured in MEM medium containing 10% FBS (Life Technology) and 300 μg/mL Geneticin (GIBCO, #10131), and the cell line that stably expressed the plasmid gene was selected. By a receptor binding assay using 2-[^125I] Iodomelatonin, CHO-hMT2 cell line showing specific binding of 2-[^125I] Iodomelatonin was selected from the obtained clones.
as §2, §3, §4, §5, §6, §7, §8, §9

T1 sequence (P48039 whole entry): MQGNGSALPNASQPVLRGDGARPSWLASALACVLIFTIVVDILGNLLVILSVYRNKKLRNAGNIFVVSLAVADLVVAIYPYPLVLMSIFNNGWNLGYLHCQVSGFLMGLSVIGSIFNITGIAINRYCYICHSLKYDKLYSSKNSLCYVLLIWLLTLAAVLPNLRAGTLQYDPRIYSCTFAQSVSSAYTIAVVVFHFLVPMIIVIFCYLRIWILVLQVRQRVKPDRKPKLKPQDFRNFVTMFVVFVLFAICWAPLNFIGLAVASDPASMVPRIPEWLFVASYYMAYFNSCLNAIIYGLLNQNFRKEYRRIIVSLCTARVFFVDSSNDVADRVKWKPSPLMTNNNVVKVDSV

SMILES	IC50 [1] [nM]	IC50 [2] [nM]	melting point [°C]
Cc1cc2c3c(ccn2n1)CCC3CCNC(=O)C1CC1 (stereo not shown) [Example 33, N-[2-(2-methyl-8,9-dihydro-7H-cyclopenta[c]pyrazolo[1,5-a]pyridin-9-yl)ethyl]cyclopropanecarboxamide]	≤ 100	≤ 100	112 to 113
CCC(=O)NCCC1CCc2ccn3nc(C)cc3c21 (stereo not shown) [Example 32, N-[2-(2-methyl-8,9-dihydro-7H-cyclopenta[c]pyrazolo[1,5-a]pyridin-9-yl)ethyl]propanamide]	≤ 100	≤ 100	
CC(=O)NCCC1CCc2ccn3ncc(C)c3c21 (stereo not shown) [Example 10, N-[2-(1-methyl-8,9-dihydro-7H-cyclopenta[c]pyrazolo[1,5-a]pyridin-9-yl)ethyl]acetamide]			121 to 122
CC(=O)NCCC1CCc2ccc3nc(C)cn3c21 (stereo not shown) [Example 22, N-[2-(2-methyl-7,8-dihydro-6H-cyclopenta[e]imidazo[1,2-a]pyridin-8-yl)ethyl]acetamide]	≤ 100	≤ 100	
CC(=O)NCCC1CCc2ccn3nc(C)c(C)c3c21 (stereo not shown) [Example 14, N-[2-(1,2-dimethyl-8,9-dihydro-7H-cyclopenta[c]pyrazolo[1,5-a]pyridin-9-yl)ethyl]acetamide]	≤ 100	≤ 100	134 to 135
CC(=O)NCCC1CCc2ccn3nccc3c21 (stereo not shown) [Example 11, N-[2-(8,9-dihydro-7H-cyclopenta[c]pyrazolo[1,5-a]pyridin-9-yl)ethyl]acetamide]	≤ 100	≤ 100	100 to 101
CCOC(=O)c1c(C)nn2ccc3c(c12)C(CCNC(C)=O)CC3 (stereo not shown) [Example 13, ethyl 9-[2-(acetylamino)ethyl]-2-methyl-8,9-dihydro-7H-cyclopenta[c]pyrazolo[1,5-a]pyridine-1-carboxylate]			101 to 103
CCC(=O)NCC=C1CCc2ccc3nn(C)cc3c21 [Example 5, N-[2-(2-methyl-6,7-dihydrocyclopenta[e]indazol-8(2H)-ylidene)ethyl]propanamide]	≤ 100	≤ 100	185 to 187
CC(=O)NCC=C1CCc2ccc3nn(C)cc3c21 [Example 1, N-[2-(2-methyl-6,7-dihydrocyclopenta[e]indazol-8(2H)-ylidene)ethyl]acetamide]	≤ 100	≤ 100	200 to 202
CC(=O)NCCC1CCc2ccn3nc(-c4ccccc4)cc3c21 (stereo not shown) [Example 34, N-[2-(2-phenyl-8,9-dihydro-7H-cyclopenta[c]pyrazolo[1,5-a]pyridin-9-yl)ethyl]acetamide]		≤ 100	159 to 160

More lines, now with the values ahead:

IC50 [1] [nM]	IC50 [2] [nM]	melting point [°C]	SMILES
≤ 100	≤ 100		CC(=O)NCC[C@@H]1CCc2ccc3nn(C)cc3c21 [Example 3]
≤ 100	≤ 100		CCc1cc2c3c(ccn2n1)CCC3CCNC(C)=O (stereo not shown) [Example 21, N-[2-(2-ethyl-8,9-dihydro-7H-cyclopenta[c]pyrazolo[1,5-a]pyridin-9-yl)ethyl]acetamide]
≤ 100	≤ 100	143 to 144	CC(=O)NCCC1CCc2c(Cl)cc3nn(C)cc3c21 (stereo not shown) [Example 31, N-[2-(5-chloro-2-methyl-2,6,7,8-tetrahydrocyclopenta[e]indazol-8-yl)ethyl]acetamide]
≤ 100	≤ 100		CC(=O)NCCC1CCc2ccc3nn(C)cc3c21 (stereo not shown) [Example 2, N-[2-(2-methyl-2,6,7,8-tetrahydrocyclopenta[e]indazol-8-yl)ethyl]acetamide]
≤ 100	≤ 100		CC(=O)NCC[C@@H]1CCc2ccc3nn(C)c(Br)c3c21 [Example 25, N-{2-[(8S)-1-bromo-2-methyl-2,6,7,8-tetrahydrocyclopenta[e]indazol-8-yl]ethyl}acetamide]
≤ 100	≤ 100		CC(=O)NCCC1CCc2ccn3nc(C)cc3c21 (stereo not shown) [Example 18, N-[2-(2-methyl-8,9-dihydro-7H-cyclopenta[c]pyrazolo[1,5-a]pyridin-9-yl)ethyl]acetamide]
≤ 100	≤ 100	168 to 171	CC(=O)NCC[C@@H]1CCc2ccc3nn(C)c(Cl)c3c21 [Example 24, N-{2-[(8S)-1-chloro-2-methyl-2,6,7,8-tetrahydrocyclopenta[e]indazol-8-yl]ethyl}acetamide]
≤ 100	≤ 100	155 to 156	CC(=O)NCC[C@@H]1CCc2ccc3nn(C)c(F)c3c21 [Example 23, N-{2-[(8S)-1-fluoro-2-methyl-2,6,7,8-tetrahydrocyclopenta[e]indazol-8-yl]ethyl}acetamide]
≤ 100	≤ 100		CC(=O)NCC[C@@H]1CCc2ccn3nc(C)cc3c21 [Example 19, N-{2-[(9S)-2-methyl-8,9-dihydro-7H-cyclopenta[c]pyrazolo[1,5-a]pyridin-9-yl]ethyl}acetamide]
≤ 100	≤ 100	116 to 119	CC(=O)NCCC1CCc2c(F)cc3nn(C)cc3c21 (stereo not shown) [Example 28, N-[2-(5-fluoro-2-methyl-2,6,7,8-tetrahydrocyclopenta[e]indazol-8-yl)ethyl]acetamide]
≤ 100	≤ 100		CCC(=O)NCCC1CCc2ccc3nn(C)cc3c21 (stereo not shown) [Example 6, N-[2-(2-methyl-2,6,7,8-tetrahydrocyclopenta[e]indazol-8-yl)ethyl]propanamide]
